In EP3828160A1, “TREPROSTINIL DERIVATIVE COMPOUNDS AND METHODS OF USING SAME” (Corsair Pharma, Inc., priority 2014, dated 2016):

What was measured:
[1] = Human hepatocyte stability assay (Test 4); type: in vitro ADME; conditions: cryopreserved hepatocytes, 0.5 uM test compound, 37°C, up to 240 minutes, 0.5 million cells/mL in William's Medium E, read-out: Test 4 T1/2
Procedure: (§1) Four assays on compounds were carried out by the following methods with the results shown in Table I. • (Test 1) Human liver microsomal stability assay was conducted by incubating 0.5 uM test compounds at 37°C for up to 45 minutes in 50 mM of potassium phosphate buffer (pH 7.4) containing 0.5 mg of microsomal protein and 50 µL of NADPH generating system (7.8 mg of glucose 6-phosphate, 1.7 mg of NADPH and 6 U of glucose 6-phosphate dehydrogenase per mL in 2% w/v of sodium bicarbonate). At 0, 5, 15, 30 and 45 min., an aliquot was taken, quenched with internal standard containing stop solution. No co-factor controls at 45 minutes were also prepared. After incubation, the samples were analyzed by LC-MS/MS. Peak area ratios of analyte to internal standard were used to calculate the intrinsic clearance. The intrinsic clearance (CLint) was determined from the first order elimination constant by non-linear regression. Formation of the active drug Compound A over the time course was also monitored by LC-MS/MS analysis. • (Test 2) Human plasma stability assay was conducted by incubating 0.5 uM test compounds at 37°C for up to 120 minutes in heparinated human plasma. At 0, 5, 15, 30, 60 and 120 […] min., an aliquot was taken, quenched with internal standard containing stop solution. After incubation, the samples were analyzed by LC-MS/MS. Peak area ratios of analyte to internal standard were used to calculate the half-life. Formation of the active drug Compound A over the time course was also monitored by LC-MS/MS analysis. • (Test 3) Human skin homogenate stability assay was conducted in a similar way as the human liver microsomal stability assay, by incubating 0.5 uM test compounds at 37°C for up to 45 minutes in 50 mM of potassium phosphate buffer (pH 7.4) containing 0.5 mg of human skin homogenate protein and 50 µL of NADPH generating system (7.8 mg of glucose 6-phosphate, 1.7 mg of NADPH and 6 U of glucose 6-phosphate dehydrogenase per mL in 2% w/v of sodium bicarbonate). At 0, 5, 15, 30 and 45 min., an aliquot was taken, quenched with internal standard containing stop solution. No co-factor controls at 45 minutes were also prepared. After incubation, the samples were analyzed by LC-MS/MS. Peak area ratios of analyte to internal standard were used to calculate the intrinsic clearance. The intrinsic clearance (CLint) was determined from the first order elimination constant by non-linear regression. Formation of the active drug Compound A over the time course was also monitored by LC-MS/MS analysis. • (Test 4) Human hepatocyte stability assay was conducted by incubating 0.5 uM test compound at 37°C for up to 240 minutes. Cryopreserved human hepatocytes were obtained from Celsis IVT (Baltimore, Maryland). Cells were thawed according to vendor's instructions and were suspended in William's Medium E to 0.5 million cells/mL. Test compounds were spiked into the cell suspension to initiate the reactions. At 0, 10,30,60, 120 and 240 min., an aliquot was taken, quenched with internal standard containing stop solution. After incubation, the samples were analyzed by LC-MS/MS. Peak area ratios of analyte to internal standard were used to calculate the intrinsic clearance. The intrinsic clearance (CLint) was determined from the first order elimination constant by non-linear regression. Formation of the active drug Compound A over the time course was also monitored by LC-MS/MS analysis.

[2] = Human liver microsomal stability assay (Test 1); type: in vitro ADME; conditions: liver microsomes, 0.5 uM test compound, 37°C, up to 45 minutes, 0.5 mg microsomal protein, NADPH generating system, pH 7.4, read-out: Test 1 T1/2
Procedure: as §1

[3] = Human plasma stability assay (Test 2); type: in vitro ADME; conditions: 0.5 uM test compound, 37°C, up to 120 minutes, heparinated human plasma, read-out: Test 2 T1/2
Procedure: as §1

[4] = Human skin homogenate stability assay (Test 3); type: in vitro ADME; conditions: 0.5 uM test compound, 37°C, up to 45 minutes, 0.5 mg human skin homogenate protein, NADPH generating system, pH 7.4, read-out: Test 3 T1/2
Procedure: as §1

[5] = treprostinil as the free acid, cited from earlier work

half-life at 0.5 uM [1]	half-life at 0.5 uM [2]	half-life at 0.5 uM [3]	half-life at 0.5 uM [4]	SMILES	absolute oral bioavailability ([5]; oral)	systemic half life ([5]; due to significant metabolism)
31 to 60 min	< 15 min	> 60 min		CCCCCC(O)CCC1C(O)CC2Cc3c(cccc3OCC(=O)NCC3CC3)CC21 (stereo not drawn) [Compound 2, N-Cyclopropylmethyl-2-[2-hydroxy-1-(3-hydroxy-octyl)-2,3,3a,4,9,9a-hexahydro-1H-cyclopenta[b]naphthalen-5-yloxy]-acetamide]		
15 to 30 min	15 to 30 min	> 60 min		CCCCCC(O)CCC1C(O)CC2Cc3c(cccc3OCC(=O)NCCO)CC21 (stereo not drawn) [Compound 7, N-(2-Hydroxy-ethyl)-2-[2-hydroxy-1-(3-hydroxy-octyl)-2,3,3a,4,9,9a-hexahydro-1H-cyclopenta[b]naphthalen-5-yloxy]-acetamide]		
	< 15 min	> 60 min	31 to 60 min	CCCCCC(O)CCC1C(OC(=O)OCC)CC2Cc3c(cccc3OCC(=O)OC)CC21 (stereo not drawn) [Compound 25, [2-Ethoxycarbonyloxy-1-(3-hydroxy-octyl)-2,3,3a,4,9,9a-hexahydro-1H-cyclopenta[b]naphthalen-5-yloxy]-acetic acid methyl ester]		

Second part, the molecule before the results:

SMILES	half-life at 0.5 uM [1]	half-life at 0.5 uM [2]	half-life at 0.5 uM [3]	half-life at 0.5 uM [4]	absolute oral bioavailability ([5]; oral)	systemic half life ([5]; due to significant metabolism)
CCCCCC(O)CCC1C(O)CC2Cc3c(cccc3OCC(=O)N(C)CC(=O)OC)CC21 (stereo not drawn) [Compound 13, ({2-[2-Hydroxy-1-(3-hydroxy-octyl)-2,3,3a,4,9,9a-hexahydro-1H-cyclopenta[b]naphthalen-5-yloxy]-acetyl}-methyl-amino)-acetic acid methyl ester]	< 15 min	< 15 min	> 60 min			
CCCCCC(O)CCC1C(O)CC2Cc3c(cccc3OCC(=O)NCC(F)(F)F)CC21 (stereo not drawn) [Compound 14, 2-[2-Hydroxy-1-(3-hydroxy-octyl)-2,3,3a,4,9,9a-hexahydro-1H-cyclopenta[b]naphthalen-5-yloxy]-N-(2,2,2-trifluoro-ethyl)-acetamide]	< 15 min	< 15 min	> 60 min	> 60 min		
CCCCC[C@H](O)CC[C@@H]1[C@H]2Cc3cccc4c3C[C@H]2C[C@H]1OC(=O)CO4 [Compound 57, Treprostinil 2-hydroxy lactone]	> 60 min	> 60 min	> 60 min			
CCCCC[C@H](O)CC[C@@H]1[C@H]2Cc3cccc(OCC(=O)O)c3C[C@H]2C[C@H]1O [treprostinil]					less than 10%	very short
